Test results: the supplement of paper PMC10307832

What was measured:
Assay in all cases: relative viability (nuclei count vs DMSO), 5 days (fraction); higher = more cells survive
Kobe2602 + Foretinib = compound: C1=CC(=CC=C1NC(=S)NNC2=C(C=C(C=C2[N+](=O)[O-])C(F)(F)F)[N+](=O)[O-])F [Kobe2602] + COc1cc2c(Oc3ccc(NC(=O)C4(C(=O)Nc5ccc(F)cc5)CC4)cc3F)ccnc2cc1OCCCN1CCOCC1 [Foretinib] (partner 0.25 µM)
In short: (§1)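 A single step with final 0.05% Triton X-100, 1% formaldehyde and 1 ug/ml Hoechst fixed the cells and stained nuclei 5 days after treatment. Lung cancer cell lines in 1536-well plates had been treated by pin tool the day after seeding with one drug alone or a fixed anchor-drug dose plus five library-drug doses (not always all listed) in √10 steps, and nuclei were counted on 4× images. Relative viability is the ratio of nuclei in treated wells to nuclei in vehicle wells, taken as the median of duplicate plates.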

Kobe2602 + Linsitinib = compound: C1=CC(=CC=C1NC(=S)NNC2=C(C=C(C=C2[N+](=O)[O-])C(F)(F)F)[N+](=O)[O-])F [Kobe2602] + C[C@]1(O)C[C@@H](c2nc(-c3ccc4ccc(-c5ccccc5)nc4c3)c3c(N)nccn32)C1 [Linsitinib] (partner 1 µM)
In short: as §1

Zosuquidar + Linsitinib = compound: O[C@@H](COc1cccc2ncccc12)CN1CCN([C@@H]2c3ccccc3[C@@H]3[C@H](c4ccccc42)C3(F)F)CC1 [Zosuquidar] + C[C@]1(O)C[C@@H](c2nc(-c3ccc4ccc(-c5ccccc5)nc4c3)c3c(N)nccn32)C1 [Linsitinib] (partner 1 µM)
In short: as §1

Zosuquidar + Tozasertib = compound: O[C@@H](COc1cccc2ncccc12)CN1CCN([C@@H]2c3ccccc3[C@@H]3[C@H](c4ccccc42)C3(F)F)CC1 [Zosuquidar] + Cc1cc(Nc2cc(N3CCN(C)CC3)nc(Sc3ccc(NC(=O)C4CC4)cc3)n2)n[nH]1 [Tozasertib] (partner 0.1 µM)
In short: as §1

| Cell Line | relative viability (Kobe2602 + Foretinib; first compound 0.2 µM) | relative viability (Kobe2602 + Foretinib; first compound 0.6325 µM) | relative viability (Kobe2602 + Foretinib; first compound 2 µM) | relative viability (Kobe2602 + Foretinib; first compound 6.325 µM) | relative viability (Kobe2602 + Foretinib; first compound 20 µM) | relative viability (Kobe2602 + Linsitinib; first compound 0.2 µM) | relative viability (Kobe2602 + Linsitinib; first compound 0.6325 µM) | relative viability (Kobe2602 + Linsitinib; first compound 2 µM) | relative viability (Kobe2602 + Linsitinib; first compound 6.325 µM) | relative viability (Kobe2602 + Linsitinib; first compound 20 µM) | relative viability (Zosuquidar + Linsitinib; first compound 0.01 µM) | relative viability (Zosuquidar + Linsitinib; first compound 0.03162 µM) | relative viability (Zosuquidar + Linsitinib; first compound 0.1 µM) | relative viability (Zosuquidar + Linsitinib; first compound 0.3162 µM) | relative viability (Zosuquidar + Linsitinib; first compound 1 µM) | relative viability (Zosuquidar + Tozasertib; first compound 0.01 µM) | relative viability (Zosuquidar + Tozasertib; first compound 0.03162 µM) | relative viability (Zosuquidar + Tozasertib; first compound 0.1 µM) | relative viability (Zosuquidar + Tozasertib; first compound 0.3162 µM) | relative viability (Zosuquidar + Tozasertib; first compound 1 µM) |
| --- | --- | --- | --- | --- | --- | --- | --- | --- | --- | --- | --- | --- | --- | --- | --- | --- | --- | --- | --- | --- |
| NCI-H2023 | 0.931 | 0.803 | 0.825 | 0.931 | 0.933 | 0.575 | 0.728 | 0.528 | 0.586 | 0.682 | 0.656 | 0.815 | 0.605 | 0.631 | 0.776 | 0.335 | 0.426 | 0.407 | 0.398 | 0.314 |
| NCI-H2085 | 0.909 | 1.01 | – | 1.12 | 0.879 | 0.926 | 0.829 | 0.864 | 0.977 | 0.97 | 0.867 | 0.982 | 0.919 | 0.901 | 0.995 | 0.852 | 0.886 | 0.778 | 0.835 | 0.856 |
| NCI-H2087 | 1.09 | 1.18 | 1.07 | 1.11 | 1.18 | 1.11 | 0.864 | 0.882 | 0.939 | 0.94 | 0.916 | 1.03 | 1.01 | 0.987 | 0.89 | 0.266 | – | 0.27 | 0.228 | 0.218 |
| NCI-H2126 | 1.17 | 1.25 | 1.07 | 0.996 | 1.01 | 0.718 | 0.659 | 0.7 | 0.704 | 0.765 | 0.71 | 0.707 | 0.543 | 0.755 | 0.719 | 0.815 | 0.861 | – | 0.918 | 0.796 |
| NCI-H2228 | 0.923 | 0.806 | 0.734 | 0.817 | 0.862 | 0.576 | 0.733 | 0.809 | 0.756 | 0.598 | 0.659 | 0.922 | 0.552 | 0.515 | 0.685 | 0.213 | 0.272 | 0.252 | 0.208 | 0.272 |
| NCI-H2347 | 1.32 | 1.38 | 0.83 | 0.63 | 0.868 | 0.924 | 0.884 | 0.947 | 0.997 | 1.03 | 0.968 | 1 | 0.834 | 1.01 | 1.06 | 0.593 | 0.575 | 0.555 | 0.691 | 0.543 |
| NCI-H2405 | 1.05 | 1.04 | 1.01 | 1.06 | 1.07 | 0.961 | 1.06 | 0.932 | 0.971 | 0.994 | 0.984 | 0.878 | 0.784 | 0.969 | 0.983 | 0.774 | 0.762 | 0.724 | 0.747 | 0.74 |
| NCI-H3122 | 0.969 | 0.88 | 0.967 | 0.925 | 0.967 | 1.01 | 1.05 | 1.01 | 1.06 | 1.11 | 1.01 | 0.939 | 0.938 | 1.07 | 0.959 | 0.396 | 0.391 | – | 0.466 | 0.379 |
| PC-3 [JPC-3] | 1.02 | 1.18 | 0.994 | 1.03 | 1.07 | 0.952 | 0.872 | 0.965 | 0.976 | 0.956 | 0.945 | 0.956 | 0.817 | 0.929 | 0.981 | 0.844 | 0.835 | 0.879 | 0.824 | 0.897 |
| PC-14 | 0.962 | 0.968 | 0.922 | 0.939 | 0.911 | 0.946 | 0.986 | 0.929 | 0.94 | 0.929 | 0.918 | 0.97 | 0.904 | 0.94 | 1.02 | 0.551 | 0.602 | 0.629 | 0.519 | 0.57 |
| RERF-LC-KJ | 0.878 | 0.952 | 0.828 | 0.777 | 0.763 | 0.826 | 0.868 | 0.814 | 0.829 | 0.824 | 0.858 | 0.903 | 0.876 | 0.932 | 0.906 | 0.501 | 0.552 | 0.505 | 0.519 | 0.428 |
| SK-LU-1 | 0.78 | 0.911 | 0.81 | 0.834 | 0.872 | 1.05 | 1.15 | 1.04 | 1.04 | 1.27 | 1.1 | 1.3 | 1.39 | 1.22 | 0.874 | 0.292 | 0.359 | 0.417 | 0.353 | 0.332 |
| SK-MES-1 | 0.922 | 0.99 | 0.918 | 0.99 | 0.898 | 1 | 1.26 | 1.04 | 1.07 | 1.07 | 1.01 | 1.08 | 0.991 | 0.979 | 1.1 | 0.797 | 1.01 | 0.97 | 0.942 | 0.857 |
| SW 1573 | 1.02 | 0.873 | 0.998 | 1 | 1.18 | 0.846 | 0.767 | 0.811 | 0.769 | 0.864 | 0.713 | 0.728 | 0.793 | 0.925 | 0.859 | 0.171 | 0.147 | 0.14 | 0.182 | 0.157 |
